# Conditions: buffer; pH 7.4; 200.0 µM
row,Structure (SMILES),solubility kinetic [µg/mL]
1,CCn1ccnc1CNC(=O)c1ccc2oc(C(C)C)nc2c1,> 46.9
2,COc1ccc(Cl)cc1NC(=O)NCCN1CCNC1=O,43.9
3,CCN(CC)c1nc(N2CCN(C)CC2)nc2ccccc12.Cl,50.1
4,C#CCn1ccc(O)c(Cc2c(F)cccc2Cl)c1=O,> 43.8
5,NC1=NC(=O)/C(=C/C=C/c2cccs2)S1,5.9
6,Cc1cc(C)nc(N2CCN(c3ccc(F)cc3)CC2)n1,2.1
7,COc1ccc(NC(=O)c2cc(C)nc3ccccc23)cc1S(=O)(=O)N1CCOCC1,6.1
8,CC12CC3CC(C)(C1)CC(NCc1ccncc1)(C3)C2.Cl,> 46
9,CN(C)S(=O)(=O)c1cccc(NC(=O)COc2ccc(S(=O)(=O)N3CCOCC3)cc2Cl)c1,5.4
10,NC(=O)c1ccc[n+]([C@H]2O[C@@H](COP(=O)([O-])OP(=O)(O)OC[C@H]3O[C@@H](n4cnc5c(N)ncnc54)[C@H](O)[C@@H]3O)[C@H](O)[C@@H]2O)c1,> 99.5
11,Cc1ccc(NC(=S)N2CCCC2)cc1Cl,12.5
12,COc1ccc(NC(=O)Nc2ccc([N+](=O)[O-])cc2)cn1,0.9
13,COc1cccc(-n2c(/C=C/c3ccccn3)nc3ccccc3c2=O)c1,0.5
14,CCOC(=O)c1sc(NC(=O)CC(C)c2ccccc2)nc1C (centres undefined),< 0.4
15,CSc1nc2nc(-c3cccs3)cc(C(F)(F)F)c2c(=O)[nH]1,2.5
16,CC(=O)N1CCc2[nH]c3ccc(C)cc3c2C1,> 34.2
17,Cc1ccc(S(=O)(=O)N(C)C(C)CCc2ccco2)cc1 (centres undefined),26.2
18,COc1ccc(C2=NOC(C(=O)NCc3cccnc3)C2)cc1OC (centres undefined),> 51.2
19,NC(=Nc1ccccc1)Nc1ccccc1,29.5
20,Cc1ccc(NC(=O)CCn2c(=S)oc3ccccc32)cc1F,< 0.4
21,COc1ccccc1N1CCN(C(=S)NC(=O)/C=C/c2ccccc2)CC1,1.3
22,Cc1ccc(CN2C(=O)CSC(C)C2=O)cc1 (centres undefined),> 37.4
23,CC(C)OP(=O)(c1ccc(N(C)C)cc1)C(O)c1ccc(N(C)C)cc1 (centres undefined),> 56.5
24,COc1ccc(NCC(=O)N2CCCC2)cc1Cl,38

row,Structure (SMILES),solubility kinetic [µg/mL]
1,CC(=O)C(Cc1ccccc1)NC(=O)CN1CCc2ccccc2C1 (centres undefined),> 50.5
2,CCC(C)(C)NC(=S)Nc1ccccc1C,> 35.5
3,Cc1c(NC(=O)c2ccc(S(=O)(=O)Nc3ccccc3F)cc2)c(=O)n(-c2ccccc2)n1C,> 72.1
4,Cc1cc(NC(=O)CSCc2ccccc2C)no1,18.3
5,CC(=O)NC(c1ccc2ccccc2c1)c1ccc2cccnc2c1O (centres undefined),1.2
6,CCOc1ccccc1NC(=O)c1ccccc1N(C)S(=O)(=O)c1ccc(C)cc1,3.2
7,COC(=O)CNC(=O)COC(=O)/C=C/c1ccc(F)cc1,> 44.3
8,CCOC(=O)C1CCCN(CCC(=O)Nc2cc(C)cc(C)c2)C1 (centres undefined),> 49.9
9,CCOC(=O)c1c(C)[nH]c(-c2csc(C)n2)c1C,27.5
10,Nc1nnc(SCC(=O)NC2CCCCCC2)s1,> 43
11,Cc1ccc(N2CCN(C(=O)c3cccs3)CC2)cc1C,43.8
12,Cc1cc(C(F)(F)F)nc(SCC(=O)NC2CCCCC2)n1,33.2
13,COC(=O)c1oc(-c2ccccc2)nc1C,15.6
14,O=C(CN1CCCCC1)NC(=O)Nc1ccccc1F,> 41.9
15,CN(C)C(=O)c1c(NC(=O)c2ccccc2)sc2c1CCC2,42.9
16,Cc1ccc(C2(c3noc(CN4CCOCC4)n3)CCCC2)cc1,41.3
17,CC(=O)Nc1ccc(C(=O)O)cc1,> 26.9
18,COc1ccc(NC(=S)NC(=O)/C=C/c2ccccc2)cc1,< 0.3
19,COc1ccccc1NC(=O)COC(=O)c1ccc([N+](=O)[O-])s1,5.1
20,COc1ccc(-n2c(-c3ccc(C)cc3)nc3ccccc3c2=O)cc1,< 0.4
21,CCOc1ccc(C(=O)NCC(=O)NCCOc2ccc(C)cc2)cc1,10.4
22,COC(=O)c1sccc1-c1ccc(/C=N/OC(=O)c2cccs2)o1,< 0.8
23,COc1cc(NC(=O)c2ccc(OCc3c(C)noc3C)c(OC)c2)cc(OC)c1,5.4
24,CCOc1ccc(-c2csc3nc[nH]c(=O)c23)cc1,18.9

row,Structure (SMILES),solubility kinetic [µg/mL]
1,OC(COc1ccccc1)CN1CCCCCC1 (centres undefined),> 37.4
2,CCNc1nc(OC)nc(SCC(=O)Nc2ccccc2)n1,> 47.9
3,CN1CCN(NC(=O)c2cccc(C(F)(F)F)c2)CC1,> 43.1
4,COc1ccc(C(=O)NCCN2CCCC2)cc1.Cl,> 42.7
5,Cc1ccc2[nH]c(C(=O)N3CCN(C(c4ccccc4)c4ccccc4)CC3)cc2c1,1
6,Cc1ccc(CNC(=O)COC(=O)C2CCC2)cc1,> 39.2
7,Br.CN(/N=C/c1ccncc1)C1=NCCN1,> 42.6
8,Cc1cc(C(=O)O)c(C)n1C1CC1,> 26.9
9,COc1cccc(/C=C/C(=O)OCC(=O)NC2CC2)c1,> 41.3
10,O=C(Oc1cccc(OC(=O)N2CCCCC2)c1)N1CCCCC1,20.8
11,COc1ccc(C(=O)N/C(=C\c2ccc(SC)cc2)C(=O)NCCCn2ccnc2)cc1OC,12.3
12,COc1ccc(-c2csc(Nc3ccccn3)n2)cc1,< 0.2
13,Cc1cccc(CCN=C(N)NS(=O)(=O)c2ccccc2)c1,> 47.6
14,c1ccc(COc2ccccc2CNC2CCCC2)cc1,38.5
15,Cc1ccc(N=Cc2c(O)c3ccccc3oc2=O)cc1F,< 0.6
16,CCN(C(=O)c1ccc(Br)o1)C1CCS(=O)(=O)C1 (centres undefined),> 50.4
17,CC(CCc1ccccc1)NC(=O)CSc1cccc[n+]1[O-] (centres undefined),40.6
18,Cc1ccc(NC(=O)CN(C)C(=O)Nc2ccc(C)cc2)cc1,4.9
19,CC1CN(c2ccc([N+](=O)[O-])c(N3CCCCC3)c2)CCN1 (centres undefined),42.4
20,CC1CCN(CC(=O)N2CCN(c3ccccc3)CC2)CC1,40.8
21,O=C(O)C1CCCN(S(=O)(=O)c2ccc(Br)s2)C1 (centres undefined),52.1
22,CCOc1ccc(N2C(=O)CC(C(C)c3ccccc3)C2=O)cc1 (centres undefined),5.7
23,COc1ccc(-c2cc(CS(=O)(=O)c3ccccc3)on2)cc1,0.7
24,CN(C)C1(CNC(=O)Cc2ccccc2F)CCCCC1,42.2

row,Structure (SMILES),solubility kinetic [µg/mL]
1,CC1CCCCC1NC(=O)C(C)N1C(=O)c2ccccc2C1=O (centres undefined),> 47.2
2,CCc1ccccc1Nc1ncnc2ccccc12.Cl,> 42.9
3,CCS(=O)(=O)N1CCN(c2ncnc3sc(C)c(C)c23)CC1,> 51.1
4,Oc1ccc(N=Cc2c(O)ccc3ccccc23)cc1,< 0.6
5,C=CCOc1ccc(/C=C/C(=O)OCC(=O)NC2CCCCCC2)cc1,< 0.8
6,O=S(=O)(/N=C/c1c(O)ccc2ccccc12)c1ccccc1,> 46.7
7,CC(=O)c1ccc(S(=O)(=O)N2CCNC(=O)C2)cc1,> 42.3
8,O=[N+]([O-])c1cccc(-c2ccc(CN3CCCCC3)o2)c1,30.5
9,O=C(CCC(=O)c1ccc(Br)cc1)Nc1ccc(F)cc1,< 0.7
10,CCc1noc(C)c1C(=O)OCC(=O)NCc1ccccc1,> 45.3
11,Cc1ccc(C(=O)N2CCN(c3nc4ccccc4n3C)CC2)cc1,> 50.2
12,OCc1nc2ccccc2n1CCOc1ccccc1,> 40.2
13,CCCn1c(COc2ccccc2OC)nc2ccccc21,39.5
14,O=C1C2CCCN2C(=O)N1CCCN1CCN(c2ccc([N+](=O)[O-])cc2)CC1 (centres undefined),49.4
15,O=S(=O)(c1cccc(-c2nnco2)c1)N1CCOCC1,> 44.3
16,CN(C)c1ccc(C(=O)NC2(N3CCC3=O)CCCC2)cc1,> 45.2
17,O=C(CN1C(=O)NC(c2ccccc2)(c2ccccc2)C1=O)NCCc1ccc(F)cc1,7.6
18,COc1ccc(NC(=O)COc2ccc3c(c2)CCC3)cc1,2.7
19,CCCS(=O)(=O)N1CCCC(C(=O)N2CCCCC2)C1 (centres undefined),43
20,CCOC(=O)c1ccccc1NC(=S)N1CCC(C(N)=O)CC1,41.6
21,O=C(COc1ccc(Cl)cc1)Nc1ccc2c(c1)OCO2,< 0.7
22,Cc1cc(NC(=O)COC(=O)c2cnccn2)ccc1Br,> 52.5
23,CCc1ccc(NC(=O)Cn2cnc3c(=O)n(C)c(=O)n(C)c32)cc1,18.6
24,Cc1ccc(C(C)C)c(OCCCN2CCc3ccccc3C2)c1.Cl,3.1

row,Structure (SMILES),solubility kinetic [µg/mL]
1,Cc1cccc(C)c1N1C(=O)[C@@H]2C(c3ccccc3Cl)=NO[C@@H]2C1=O,39.6
2,COc1ccccc1C(=O)NCC(=O)Nc1ccc2c(c1)OCO2,10.5
3,O=C(COC(=O)c1ccc(S(=O)(=O)N2CCCCC2)cc1)NCc1ccccc1,3.6
4,O=C(N/N=C\c1cccnc1)c1ccc(Cl)cc1Cl,> 44.1
5,CC[n+]1ccc(/C=C/c2c[nH]c3ccccc23)cc1.[Cl-],32.8
6,O=C(Cc1ccsc1)NCC(=O)Nc1ccccc1Br,> 53
7,COCc1cc(C)nc(SCC(=O)NCC2CCCO2)c1C#N (centres undefined),> 50.3
8,COc1ccccc1C1CCN(Cc2ccc(Cl)c(Cl)c2)CC1,< 0.8
9,Cc1ccc(C)c(-n2ccnc2SCC(N)=O)c1,> 39.2
10,Clc1ccc(OCCN2CCOCC2)cc1,28.7
11,C/C(=N\O)c1cccc(Br)c1,18.1
12,O=C(Nc1cccc(Cl)c1)Nc1cccc(C(=O)O)c1,> 43.6
13,CCOC(=O)c1csc(-c2ccc3c(c2)CCO3)n1,32.3
14,CC(C)(C)OC(=O)C(C)(C)Sc1nnc(N)s1,> 41.3
15,O=C(Nc1nc2ccccc2s1)c1ccc([N+](=O)[O-])o1,< 0.2
16,N#Cc1c(Nc2ccccc2)s[nH]c1=O,> 32.6
17,COc1ccc(S(=O)(=O)NCCCN2CCCC2=O)c(OC)c1,> 51.4
18,N#CCc1cccnc1Sc1ccc(Cl)cc1,> 39.1
19,Cc1onc(-c2ccccc2)c1C(=O)N1CCCN2C(=O)c3ccccc3C21 (centres undefined),48.7
20,Cc1cc2ncc(-c3cccs3)nc2cc1C,< 0.3
21,O=C(O)CCCC(=O)NCc1c(Cl)cccc1Sc1ccc(Cl)cc1,> 59.7
22,O=C(Cc1ccccc1[N+](=O)[O-])NCCC1=CCCCC1,26.7
23,Cc1cnc(CNC(=O)c2ccc3oc(C(C)C)nc3c2)[nH]1,38.2

# From PubChem BioAssay AID1996
